According to ChEMBL document CHEMBL4627287, “Synthesis and biological evaluation of novel pyrazolo[3,4-b]pyridines as cis-restricted combretastatin A-4 analogues” (Bioorg Med Chem Lett, 2020):

Columns and labels:
Tubulin (Homo sapiens) = Tubulin (Homo sapiens) (UniProt P68371+Q9H4B7+P0DPH7+P68366+Q13509+Q71U36+P04350+Q3ZCM7+P07437+P68363+Q9BQE3+Q6PEY2+Q13885+Q9BVA1+Q9BUF5); test: Inhibition of tubulin polymerization (unknown origin) at 10 uM relative to control; type: protein-complex assay
HeLa [1] = test: Antiproliferative activity against human HeLa cells assessed as cell growth inhibition measured after 48 hrs by MTT assay; type: functional, cell-based
MCF7 = test: Antiproliferative activity against human MCF7 cells assessed as cell growth inhibition measured after 48 hrs by MTT assay; type: functional, cell-based; details: MCF7, 48 h
KYSE-150 cell line = test: Antiproliferative activity against human KYSE-150 cells assessed as cell growth inhibition measured after 48 hrs by MTT assay; type: functional, cell-based; details: KYSE-150, 48 h
MDA-MB-231 = test: Antiproliferative activity against human MDA-MB-231 cells assessed as cell growth inhibition measured after 48 hrs by MTT assay; type: functional, cell-based; details: MDA-MB-231, 48 h
HeLa [2] = test: Cell cycle arrest in human HeLa cells assessed as accumulation at S phase at 18 uM measured after 24 hrs by propidium iodide staining based flow cytometry analysis (reference value: 18.92 %); type: functional
HeLa [3] = test: Cell cycle arrest in human HeLa cells assessed as accumulation at G2/M phase at 9 uM measured after 24 hrs by propidium iodide staining based flow cytometry analysis (reference value: 13.92 %); type: functional
HeLa [4] = test: Cell cycle arrest in human HeLa cells assessed as accumulation at S phase at 9 uM measured after 24 hrs by propidium iodide staining based flow cytometry analysis (reference value: 18.92 %); type: functional
HeLa [5] = test: Cell cycle arrest in human HeLa cells assessed as accumulation at G0/G1 phase at 36 uM measured after 24 hrs by propidium iodide staining based flow cytometry analysis (reference value: 67.86 %); type: functional
HeLa [6] = test: Cell cycle arrest in human HeLa cells assessed as accumulation at G2/M phase at 36 uM measured after 24 hrs by propidium iodide staining based flow cytometry analysis (reference value: 13.92 %); type: functional
HeLa [7] = test: Cell cycle arrest in human HeLa cells assessed as accumulation at G2/M phase at 18 uM measured after 24 hrs by propidium iodide staining based flow cytometry analysis (reference value: 13.92 %); type: functional
HeLa [8] = test: Cell cycle arrest in human HeLa cells assessed as accumulation at S phase at 36 uM measured after 24 hrs by propidium iodide staining based flow cytometry analysis (reference value: 18.92 %); type: functional
HeLa [9] = test: Cell cycle arrest in human HeLa cells assessed as accumulation at G0/G1 phase at 18 uM measured after 24 hrs by propidium iodide staining based flow cytometry analysis (reference value: 67.86 %); type: functional
HeLa [10] = test: Cell cycle arrest in human HeLa cells assessed as accumulation at G2/M phase measured after 24 hrs by propidium iodide staining based flow cytometry analysis; type: functional
HeLa [11] = test: Cell cycle arrest in human HeLa cells assessed as accumulation at G0/G1 phase at 9 uM measured after 24 hrs by propidium iodide staining based flow cytometry analysis (reference value: 67.86 %); type: functional

Structure (SMILES)	IC50 (HeLa [1])	IC50 (MCF7)	IC50 (KYSE-150 cell line)	IC50 (MDA-MB-231)	other results
COc1cc(-n2nc(-c3ccc(F)cc3)c3cccnc32)cc(OC)c1OC	51.4 µM	76.7 µM	41.1 µM	56.4 µM	inhibition (Tubulin (Homo sapiens)): 18%
COc1ccc(-c2nn(-c3cc(OC)c(OC)c(OC)c3)c3ncccc23)cc1	> 100 µM	> 100 µM	> 100 µM	> 100 µM	–
COc1ccccc1-c1nn(-c2cc(OC)c(OC)c(OC)c2)c2ncccc12	> 100 µM	> 100 µM	> 100 µM	> 100 µM	–
COc1cc(-c2nn(Cc3ccc(C)cc3)c3ncccc23)cc(OC)c1OC	> 100 µM	> 100 µM	> 100 µM	> 100 µM	–
COC(=O)c1ccc(-c2nn(-c3cc(OC)c(OC)c(OC)c3)c3ncccc23)cc1	> 100 µM	> 100 µM	> 100 µM	> 100 µM	–
COc1cc(-c2nn(Cc3ccc(F)cc3)c3ncccc23)cc(OC)c1OC	92.7 µM	> 100 µM	> 100 µM	61.5 µM	–
COc1cc(-n2nc(-c3ccc(Cl)c(Cl)c3)c3cccnc32)cc(OC)c1OC	> 100 µM	> 100 µM	> 100 µM	> 100 µM	–
COc1cc(-n2nc(-c3ccc([N+](=O)[O-])cc3)c3cccnc32)cc(OC)c1OC	84.5 µM	> 100 µM	> 100 µM	> 100 µM	–
COc1cc(-n2nc(-c3ccc(C#N)cc3)c3cccnc32)cc(OC)c1OC	72.5 µM	45.9 µM	85.9 µM	82.5 µM	–
COc1ccc(-c2nn(-c3cc(OC)c(OC)c(OC)c3)c3ncccc23)cc1OC	22.7 µM	96.8 µM	> 100 µM	28.7 µM	inhibition (Tubulin (Homo sapiens)): 14%
COc1cc(-c2nn(-c3ccc(Cl)cc3)c3ncccc23)cc(OC)c1OC	> 100 µM	> 100 µM	> 100 µM	> 100 µM	–
COc1cc(-n2nc(-c3ccccc3OC(F)(F)F)c3cccnc32)cc(OC)c1OC	78.9 µM	> 100 µM	> 100 µM	60.5 µM	–
COc1ccc(-c2nn(-c3cc(OC)c(OC)c(OC)c3)c3ncccc23)cc1O	18.1 µM	27.2 µM	62.8 µM	27 µM	Activity (HeLa [2]): 14.85%; Activity (HeLa [3]): 26.93%; Activity (HeLa [4]): 21.18%; inhibition (Tubulin (Homo sapiens)): 31%; Activity (HeLa [5]): 30.61%; Activity (HeLa [6]): 48.13%; Activity (HeLa [7]): 34.87%; Activity (HeLa [8]): 21.25%; Activity (HeLa [9]): 50.48%; Activity (HeLa [10]): Dose-dependent effect; Activity (HeLa [11]): 51.89%
COc1cc(-n2nc(-c3ccc(Cl)cc3)c3cccnc32)cc(OC)c1OC	> 100 µM	97.6 µM	> 100 µM	84.3 µM	–
COc1cccc(-c2nn(-c3cc(OC)c(OC)c(OC)c3)c3ncccc23)n1	> 100 µM	> 100 µM	> 100 µM	> 100 µM	–
COc1cc(-c2nn(-c3ccc(C(=O)NN)cc3)c3ncccc23)cc(OC)c1OC	29.7 µM	65.2 µM	> 100 µM	> 100 µM	–
COc1ccc(F)cc1-c1nn(-c2cc(OC)c(OC)c(OC)c2)c2ncccc12	91.8 µM	> 100 µM	74.3 µM	69.9 µM	–
COc1cc(-n2nc(-c3ccc(C)cc3)c3cccnc32)cc(OC)c1OC	> 100 µM	> 100 µM	> 100 µM	> 100 µM	–
COc1ccc(-c2nn(-c3cc(OC)c(OC)c(OC)c3)c3ncccc23)cc1N	33.4 µM	> 100 µM	58.1 µM	> 100 µM	–
COC(=O)c1ccc(-n2nc(-c3cc(OC)c(OC)c(OC)c3)c3cccnc32)cc1	> 100 µM	> 100 µM	> 100 µM	> 100 µM	–
COc1ccc(-n2nc(-c3cc(OC)c(OC)c(OC)c3)c3cccnc32)cc1OC	> 100 µM	> 100 µM	> 100 µM	> 100 µM	–
COc1cccc(-c2nn(-c3cc(OC)c(OC)c(OC)c3)c3ncccc23)c1	85 µM	86.9 µM	> 100 µM	86.7 µM	–
COc1cc(-n2nc(-c3ccc4c(c3)OCO4)c3cccnc32)cc(OC)c1OC	38.9 µM	80.1 µM	58.9 µM	79.7 µM	–
COc1cc(-n2nc(-c3ccc(C(=O)NN)cc3)c3cccnc32)cc(OC)c1OC	21.9 µM	> 100 µM	> 100 µM	51 µM	–
COc1ccc(/C=C\c2cc(OC)c(OC)c(OC)c2)cc1O [COMBRETASTATIN A4]	0.003 µM	–	0.6 µM	0.017 µM	–
COc1cc(F)ccc1-c1nn(-c2cc(OC)c(OC)c(OC)c2)c2ncccc12	58.3 µM	87.6 µM	87.4 µM	47 µM	inhibition (Tubulin (Homo sapiens)): 20%
COc1ccc(-c2nn(-c3cc(OC)c(OC)c(OC)c3)c3ncccc23)cc1[N+](=O)[O-]	23.5 µM	28.4 µM	> 100 µM	37.3 µM	inhibition (Tubulin (Homo sapiens)): 16%
